CC50, IC50 and AC50 data for 3 molecules are collected here from ChEMBL document CHEMBL1201862, “PubChem BioAssay data set” (2004).

One test deals with Vero. In words: viability of Vero cells under compound – cytotoxicity control for flavivirus capping enzyme inhibitors (AID 588742). Type of test: functional. As to conditions: Chlorocebus sabaeus.
The target in test [1] is Female germline-specific tumor suppressor gld-1 (Caenorhabditis elegans, UniProt Q17339). In words: blockers of GLD-1/TGE RNA complex formation – biochemical, fluorescence polarization, C. elegans, dose response (AID 2802).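 Further: fluorescence polarization of labeled TGE RNA bound by purified gld-1 protein.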
Sequence of Female germline-specific tumor suppressor gld-1 (Q17339 whole entry): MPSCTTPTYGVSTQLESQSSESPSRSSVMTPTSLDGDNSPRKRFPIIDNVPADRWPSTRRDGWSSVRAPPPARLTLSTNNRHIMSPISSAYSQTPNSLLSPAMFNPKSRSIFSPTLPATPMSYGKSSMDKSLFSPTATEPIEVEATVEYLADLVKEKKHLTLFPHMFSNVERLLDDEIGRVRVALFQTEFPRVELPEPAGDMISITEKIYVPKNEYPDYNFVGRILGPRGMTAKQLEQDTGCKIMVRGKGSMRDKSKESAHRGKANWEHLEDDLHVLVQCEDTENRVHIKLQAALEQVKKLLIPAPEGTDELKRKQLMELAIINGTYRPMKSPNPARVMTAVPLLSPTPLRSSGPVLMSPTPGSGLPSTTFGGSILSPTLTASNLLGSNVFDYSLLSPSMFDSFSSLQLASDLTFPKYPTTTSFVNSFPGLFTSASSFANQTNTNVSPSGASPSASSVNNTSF
Another test addresses Protein Rev (Human immunodeficiency virus type 1 group M subtype B (isolate HXB2)(HIV-1), UniProt P04618). The test can be described thus: blockers of HIV Rev/RRE RNA complex – biochemical, fluorescence polarization, HIV-1, dose response (AID 434976). Further details: species or system Human immunodeficiency virus 1. In general terms: Polarisation of emitted light reports the rotation of a fluorescent probe.

The target of the next test is Genome polyprotein (dengue virus type 2, UniProt P29990). The test can be described thus: flavivirus cap methylation enzyme inhibition – biochemical, confirmation dose response, primary screen (AID 588689). Type of test: functional.
Sequence of Genome polyprotein (P29990 2492-3391 limits assumed): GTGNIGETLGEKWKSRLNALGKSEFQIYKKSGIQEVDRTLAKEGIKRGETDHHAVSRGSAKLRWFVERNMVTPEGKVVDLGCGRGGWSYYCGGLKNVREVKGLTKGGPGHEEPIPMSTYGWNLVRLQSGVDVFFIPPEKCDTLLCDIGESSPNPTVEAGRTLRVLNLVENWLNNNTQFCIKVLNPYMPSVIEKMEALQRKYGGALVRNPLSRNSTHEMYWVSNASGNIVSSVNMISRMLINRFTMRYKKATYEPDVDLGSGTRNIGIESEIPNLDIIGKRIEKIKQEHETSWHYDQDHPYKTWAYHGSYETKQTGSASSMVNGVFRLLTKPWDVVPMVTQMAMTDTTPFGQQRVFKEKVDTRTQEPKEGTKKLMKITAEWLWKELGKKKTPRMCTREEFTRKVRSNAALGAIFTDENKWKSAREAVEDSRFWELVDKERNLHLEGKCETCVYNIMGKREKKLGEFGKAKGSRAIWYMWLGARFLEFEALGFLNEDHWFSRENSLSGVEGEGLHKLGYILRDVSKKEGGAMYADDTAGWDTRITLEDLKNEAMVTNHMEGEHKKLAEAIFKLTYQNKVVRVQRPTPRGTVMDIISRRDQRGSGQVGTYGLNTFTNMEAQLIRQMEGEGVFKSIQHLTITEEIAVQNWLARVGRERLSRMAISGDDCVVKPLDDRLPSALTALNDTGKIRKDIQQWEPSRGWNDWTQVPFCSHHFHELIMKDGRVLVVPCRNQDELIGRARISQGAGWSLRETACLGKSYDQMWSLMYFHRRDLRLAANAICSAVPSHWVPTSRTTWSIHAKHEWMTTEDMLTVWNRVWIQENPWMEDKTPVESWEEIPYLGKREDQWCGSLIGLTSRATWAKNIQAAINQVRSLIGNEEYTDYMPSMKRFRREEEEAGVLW
Test [2] deals with Dual specificity tyrosine-phosphorylation-regulated kinase 1A (Rattus norvegicus, UniProt Q63470). The format is biochemical, Homo sapiens.
Test [3] deals with T1, Sentrin-specific protease 7 (Homo sapiens, UniProt Q9BQF6).
T1 sequence (Q9BQF6 whole entry): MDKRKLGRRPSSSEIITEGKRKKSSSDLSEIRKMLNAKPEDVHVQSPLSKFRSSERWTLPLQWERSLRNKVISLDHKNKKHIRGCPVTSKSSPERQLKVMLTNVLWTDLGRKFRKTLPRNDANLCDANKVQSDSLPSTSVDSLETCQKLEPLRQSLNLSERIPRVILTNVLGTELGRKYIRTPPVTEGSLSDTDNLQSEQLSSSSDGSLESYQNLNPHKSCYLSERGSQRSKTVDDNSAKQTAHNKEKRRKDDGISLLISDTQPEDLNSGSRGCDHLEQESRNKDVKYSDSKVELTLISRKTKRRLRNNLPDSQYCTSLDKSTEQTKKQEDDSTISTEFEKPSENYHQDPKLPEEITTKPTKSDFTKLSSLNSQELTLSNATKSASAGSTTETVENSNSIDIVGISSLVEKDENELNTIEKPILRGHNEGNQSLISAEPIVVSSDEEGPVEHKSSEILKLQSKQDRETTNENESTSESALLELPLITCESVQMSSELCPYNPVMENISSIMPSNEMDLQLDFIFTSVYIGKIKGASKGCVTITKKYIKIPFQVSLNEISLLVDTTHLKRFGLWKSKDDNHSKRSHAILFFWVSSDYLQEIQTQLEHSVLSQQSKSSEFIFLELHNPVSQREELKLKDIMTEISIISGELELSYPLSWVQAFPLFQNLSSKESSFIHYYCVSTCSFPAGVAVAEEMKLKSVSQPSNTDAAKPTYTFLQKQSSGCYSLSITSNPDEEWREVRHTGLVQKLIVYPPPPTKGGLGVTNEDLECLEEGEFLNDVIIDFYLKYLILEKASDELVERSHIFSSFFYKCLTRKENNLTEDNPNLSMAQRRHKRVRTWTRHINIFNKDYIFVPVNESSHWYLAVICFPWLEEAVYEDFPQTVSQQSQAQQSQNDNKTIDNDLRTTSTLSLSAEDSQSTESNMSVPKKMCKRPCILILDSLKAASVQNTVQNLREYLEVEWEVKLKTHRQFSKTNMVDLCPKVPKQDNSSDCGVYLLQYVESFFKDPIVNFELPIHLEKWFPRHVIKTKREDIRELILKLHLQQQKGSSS
The test can be described thus: inhibition of human SENP7 cleavage activity – biochemical, luminescence, set 2, SAR follow-up (AID 588600). Type of test: functional.

Test [4] concerns the target T2, Sentrin-specific protease 6 (Homo sapiens, UniProt Q9GZR1).
T2 sequence (Q9GZR1 whole entry): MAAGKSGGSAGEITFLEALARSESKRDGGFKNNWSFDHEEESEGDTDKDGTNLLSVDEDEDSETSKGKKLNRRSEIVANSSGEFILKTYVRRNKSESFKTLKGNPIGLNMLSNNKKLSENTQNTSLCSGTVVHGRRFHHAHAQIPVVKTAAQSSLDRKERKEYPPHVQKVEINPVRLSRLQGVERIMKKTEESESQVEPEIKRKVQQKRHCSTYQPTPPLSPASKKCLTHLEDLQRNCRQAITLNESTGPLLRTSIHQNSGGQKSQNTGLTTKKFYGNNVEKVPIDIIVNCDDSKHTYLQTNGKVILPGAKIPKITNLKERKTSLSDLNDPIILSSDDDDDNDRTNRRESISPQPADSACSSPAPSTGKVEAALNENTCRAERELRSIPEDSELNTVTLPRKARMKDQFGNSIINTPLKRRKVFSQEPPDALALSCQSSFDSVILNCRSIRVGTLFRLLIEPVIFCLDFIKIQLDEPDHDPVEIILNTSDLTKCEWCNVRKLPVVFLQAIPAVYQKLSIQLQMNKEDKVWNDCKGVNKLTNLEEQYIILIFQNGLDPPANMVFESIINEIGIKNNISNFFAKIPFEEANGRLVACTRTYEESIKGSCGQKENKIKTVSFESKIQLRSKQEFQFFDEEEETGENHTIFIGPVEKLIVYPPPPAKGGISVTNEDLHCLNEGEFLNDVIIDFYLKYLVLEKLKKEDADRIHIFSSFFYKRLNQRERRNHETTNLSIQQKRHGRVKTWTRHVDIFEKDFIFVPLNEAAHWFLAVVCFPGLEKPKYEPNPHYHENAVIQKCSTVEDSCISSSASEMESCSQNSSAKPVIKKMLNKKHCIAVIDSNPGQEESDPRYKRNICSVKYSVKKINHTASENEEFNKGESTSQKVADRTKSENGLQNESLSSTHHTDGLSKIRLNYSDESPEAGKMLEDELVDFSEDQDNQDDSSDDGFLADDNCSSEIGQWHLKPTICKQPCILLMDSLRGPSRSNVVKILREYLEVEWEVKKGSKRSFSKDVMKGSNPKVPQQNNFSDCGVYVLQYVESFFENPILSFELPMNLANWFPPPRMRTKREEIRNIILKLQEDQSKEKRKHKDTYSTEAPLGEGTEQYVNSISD
The test can be described thus: inhibition of human SENP6 catalytic domain – biochemical, luminescence, set 2, SAR follow-up (AID 588598). The format is functional.

In test [5] the target is T3, Sentrin-specific protease 8 (Homo sapiens, UniProt Q96LD8).
T3 sequence (Q96LD8 whole entry): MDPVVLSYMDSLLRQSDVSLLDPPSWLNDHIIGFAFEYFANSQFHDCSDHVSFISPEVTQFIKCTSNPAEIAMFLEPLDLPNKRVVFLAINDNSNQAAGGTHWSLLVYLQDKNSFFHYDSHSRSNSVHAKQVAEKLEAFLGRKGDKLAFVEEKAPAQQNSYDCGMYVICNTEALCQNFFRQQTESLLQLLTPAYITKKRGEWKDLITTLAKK
In words: inhibition of sentrin protease 8 – biochemical, luminescence, set 2, SAR follow-up (AID 588601). The format is functional.

A further test deals with T4, Caspase-3 (Homo sapiens, UniProt P42574).
T4 sequence (P42574 whole entry): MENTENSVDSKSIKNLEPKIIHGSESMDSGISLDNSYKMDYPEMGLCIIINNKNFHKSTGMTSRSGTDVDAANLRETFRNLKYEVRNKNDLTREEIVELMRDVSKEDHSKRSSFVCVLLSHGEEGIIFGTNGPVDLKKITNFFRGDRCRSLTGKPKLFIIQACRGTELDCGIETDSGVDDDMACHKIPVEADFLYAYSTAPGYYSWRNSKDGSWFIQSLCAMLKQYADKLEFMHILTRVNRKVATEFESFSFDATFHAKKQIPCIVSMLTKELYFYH
In words: inhibition of recombinant caspase-3 activity – biochemical, luminescence, set 2, selectivity assay for SENP protease inhibitor project, SAR follow-up (AID 588599). The format is functional.

Test [6] deals with HEK293. The test can be described thus: HEK293T cell viability loss, resazurin readout – resazurin fluorescence, cytotoxicity control for NF-kB activator project, SAR follow-up (AID 493251). Type of test: functional, cell-based. As to conditions: Homo sapiens. In general terms: Resazurin is reduced to fluorescent resorufin, in cell work by metabolically active cells.
The subject of another test is Jurkat. The test can be described thus: SAR Analysis of small molecule inhibitors of both B-cell and T-cell specific antigen receptor-induced NF-kB activation in a Jurkat cell line using a luminescence assay. [Related pubchem assays (depositor defined):AID435003, AID435022, AID465, AID489029]. Type of test: functional, cell-based. The note with it: Homo sapiens.
For test [7], the system named is HEK293. In words: SAR Analysis of small molecule inhibitors of both B-cell and T-cell specific antigen receptor-induced NF-kB activation in a HEK-293T cell line using a luminescence assay. [Related pubchem assays (depositor defined):AID435003, AID435022, AID465, AID489019, AID489029]. Type of test: functional, cell-based. As to conditions: Homo sapiens.

Molecules are shown by their SMILES. Activity calls are given as the source filed them.

Sequence of Protein Rev (P04618 whole entry): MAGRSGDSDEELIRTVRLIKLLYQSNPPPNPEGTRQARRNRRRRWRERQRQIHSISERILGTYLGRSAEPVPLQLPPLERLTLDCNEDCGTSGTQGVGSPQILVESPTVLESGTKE

For the molecule `COc1cc(O)cc2cc3c(c(O)c12)C(=O)CC(C)(O)O3` (configuration not stated), the half-maximal cytotoxic concentration (CC50) (as a rule, the concentration at which the toxic effect on the cells reaches its halfway point) with Vero was > 40 µM (active). The concentration for half-maximal inhibition (IC50) (as a rule, the concentration that gives 50% inhibition) in [1] was 2.96 µM (active); on Protein Rev, 16.2 µM (not active); on Genome polyprotein it was 38.1 µM (active). Also, in test [2], the AC50 (in general, the concentration giving half of the maximal activity seen) was 2.92 µM (active).
Consider `CC(=O)Nc1ccc2nc(NC(=O)c3n[nH]c4ccccc34)sc2c1`, for which the IC50 in test [3] is > 99 µM (inactive); in test [4] it was > 99 µM (inactive); in test [5], 40.3 µM (active); on Caspase-3, 4.41 µM (active).
`Cc1ccc2cccc(N)c2n1`: the IC50 in the test with HEK293 [6] is > 80 µM (inactive); in the test on Jurkat, > 79 µM (inactive); in the test on HEK293 [7], > 79 µM (inactive).
